Literature values as cited in patent publication US10927398B2, “Compositions for CYP450 phenotyping using saliva samples” (Concordia University, Inc., priority 2015, dated 2021).
Like-named read-outs stand apart in the source and are kept apart here.

Key:
[1] = cited from earlier work
[2] = cited from earlier work; remark: listed apart in the source
plasma protein = settings: cited from earlier work
[3] = Table of Exemplary Drugs, CYP3A4
[4] = Table of Exemplary Drugs, CYP2C9
[5] = Table of Exemplary Drugs, CYP2C19
[6] = Table of Exemplary Drugs, CYP2D6
[7] = Table of Exemplary Drugs, CYP1A2

CCOC(=O)C1=C(COCCN)NC(C)=C(C(=O)OC)C1c1ccccc1Cl (stereo not drawn) [Amlodipine (Norvasc), Amlodipine]
ORAL BIOAVAILABILITY [1, 3]: 64-90%

CC(N)Cc1ccccc1 (stereo not drawn) [Amphetamine]
ORAL BIOAVAILABILITY ([1]; in vivo, po): 100+%

CC(C)COCC(CN(Cc1ccccc1)c1ccccc1)N1CCCC1 (stereo not drawn) [Bepridil (Vascor), Bepridil]
HALF-LIFE [2, 3]: 42 h
ORAL BIOAVAILABILITY [1, 3]: 60%

COc1cc2c(c(OC)c1OC)-c1ccc(OC)c(=O)cc1[C@@H](NC(C)=O)CC2 [Colchicine]
HALF-LIFE [2, 3]: 26.6 to 31.2 h
ORAL BIOAVAILABILITY [1, 3]: 45%

CC(C)CN(C[C@@H](O)[C@H](Cc1ccccc1)NC(=O)O[C@H]1CO[C@H]2OCC[C@H]21)S(=O)(=O)c1ccc(N)cc1 [Darunavir (Prezista), Darunavir]
ORAL BIOAVAILABILITY [1, 3]: 37%

CCOC(=O)C1=C(C)NC(C)=C(C(=O)OC)C1c1cccc(Cl)c1Cl (stereo not drawn) [Felodipine (Plendil), Felodipine]
ORAL BIOAVAILABILITY [1, 3]: 13-20%

COc1cc2ncnc(Nc3ccc(F)c(Cl)c3)c2cc1OCCCN1CCOCC1 [Gefitinib (Iressa), Gefitinib]
ORAL BIOAVAILABILITY [1, 3]: 60%

CC(C)Cc1ccc(C(C)C(=O)O)cc1 (stereo not drawn) [Ibuprofen]
ORAL BIOAVAILABILITY [1, 4]: 87-100%

Cc1c(OCC(F)(F)F)ccnc1C[S+]([O-])c1nc2ccccc2[nH]1 (stereo not drawn) [Llansoprazole]
HALF-LIFE [2, 5]: 0.9 to 1.5 h
PLASMA PROTEIN BINDING (plasma protein; [5]): 97-99% ^

Cc1cccc(C)c1OCC(=O)N[C@@H](Cc1ccccc1)[C@@H](O)C[C@H](Cc1ccccc1)NC(=O)[C@H](C(C)C)N1CCCNC1=O [Lopinavir (Kaletra), Lopinavir]
HALF-LIFE [2, 3]: 5 to 6 h
PLASMA PROTEIN BINDING (plasma protein; [3]): 98-99% ^

CC[C@H](C)C(=O)O[C@H]1C[C@@H](C)C=C2C=C[C@H](C)[C@H](CC[C@@H]3C[C@@H](O)CC(=O)O3)[C@H]21 [Lovastatin (Mevacor), Lovastatin]
HALF-LIFE [2, 3]: 2 to 5 h
PLASMA PROTEIN BINDING (plasma protein; [3]): >95%

C[C@H]1C[C@@H]2[C@H]([C@@H](O)C[C@@]3(C)[C@H]2CC[C@]3(O)C(=O)CO)[C@@]2(C)C=CC(=O)C=C12 [Methylprednisolone]
HALF-LIFE [2, 3]: 2 to 3 h
PLASMA PROTEIN BINDING (plasma protein; [3]): 78%

CCN(CC)CCNC(=O)c1cc(Cl)c(N)cc1OC [Metoclopramide]
HALF-LIFE [2, 6]: 5 to 6 h
PLASMA PROTEIN BINDING (plasma protein; [6]): 30%

CN1CCN2c3ncccc3Cc3ccccc3C2C1 (stereo not drawn) [Mirtazapine]
ORAL BIOAVAILABILITY [1, 6]: 50%

NC(=O)C[S+]([O-])C(c1ccccc1)c1ccccc1 (stereo not drawn) [Modafinil (Provigil), Modafinil]
HALF-LIFE [2, 3]: 7.5 to 15 h
PLASMA PROTEIN BINDING (plasma protein; [3]): 60%

Cc1c(O)cccc1C(=O)N[C@@H](CSc1ccccc1)[C@H](O)CN1C[C@H]2CCCC[C@H]2C[C@H]1C(=O)NC(C)(C)C [Nelfinavir]
HALF-LIFE [2, 5]: 3.5 to 5 h
PLASMA PROTEIN BINDING (plasma protein; [5]): 98%

CC1(C)NC(=O)N(c2ccc([N+](=O)[O-])c(C(F)(F)F)c2)C1=O [Nilutamide]
HALF-LIFE [2, 5]: 38 to 59.1 h
PLASMA PROTEIN BINDING (plasma protein; [5]): 80-84% ^

CCN(CC)CC#CCOC(=O)C(O)(c1ccccc1)C1CCCCC1 (stereo not drawn) [Oxybutynin (Ditropan), Oxybutynin]
HALF-LIFE [2, 3]: 7 to 30 h
PLASMA PROTEIN BINDING (plasma protein; [3]): 91-93% ^

Fc1ccc([C@@H]2CCNC[C@H]2COc2ccc3c(c2)OCO3)cc1 [Paroxetine]
HALF-LIFE [2, 6]: 15 to 21 h
PLASMA PROTEIN BINDING (plasma protein; [6]): 93-95% ^

CN1C(C(=O)Nc2ccccn2)=C(O)c2ccccc2S1(=O)=O [Piroxicam]
HALF-LIFE [2, 4]: 50 h
PLASMA PROTEIN BINDING (plasma protein; [4]): 99%

C[C@]12C=CC(=O)C=C1CC[C@@H]1[C@@H]2[C@@H](O)C[C@@]2(C)[C@H]1CC[C@]2(O)C(=O)CO [Prednisolone]
HALF-LIFE [2, 3]: 2 to 4 h
PLASMA PROTEIN BINDING (plasma protein; [3]): 70-90% ^

[H]/N=C(\N/C(=N/[H])Nc1ccc(Cl)cc1)NC(C)C [Proguanil]
HALF-LIFE [2, 5]: 12 to 18 h
PLASMA PROTEIN BINDING (plasma protein; [5]): 75%

OCCOCCN1CCN(C2=Nc3ccccc3Sc3ccccc32)CC1 [Quetiapine (Seroquel), Quetiapine]
HALF-LIFE [2, 3]: 6 to 7 h
PLASMA PROTEIN BINDING (plasma protein; [3]): 83%

CCN(CC)CCCC(C)Nc1c2ccc(Cl)cc2nc2ccc(OC)cc12 (stereo not drawn) [Quinacrine]
HALF-LIFE [2, 3]: 120 h
PLASMA PROTEIN BINDING (plasma protein; [3]): 80-90% ^

C=C[C@H]1C[N@@]2CC[C@H]1C[C@H]2[C@H](O)c1ccnc2ccc(OC)cc12 [Quinine]
ORAL BIOAVAILABILITY [1, 3]: 76-88%

CC(C)(C)NC(=O)[C@@H]1C[C@@H]2CCCC[C@@H]2CN1C[C@@H](O)[C@H](Cc1ccccc1)NC(=O)[C@H](CC(N)=O)NC(=O)c1ccc2ccccc2n1 [Saquinavir (Invirase), Saquinavir]
HALF-LIFE [2, 3]: 13 h
PLASMA PROTEIN BINDING (plasma protein; [3]): 98%

CCCc1nn(C)c2c(=O)[nH]c(-c3cc(S(=O)(=O)N4CCN(C)CC4)ccc3OCC)nc12 [Sildenafil]
HALF-LIFE [2, 4]: 4 h
PLASMA PROTEIN BINDING (plasma protein; [4]): 96%
PLASMA PROTEIN BINDING (plasma protein; [3]): 96%

CCN(CC)CCNC(=O)c1c(C)[nH]c(/C=C2\C(=O)Nc3ccc(F)cc32)c1C [Sunitinib (Sutent), Sunitinib]
HALF-LIFE [2, 3]: 40 to 60 h
PLASMA PROTEIN BINDING (plasma protein; [3]): 95%

CN1CC(=O)N2[C@H](c3ccc4c(c3)OCO4)c3[nH]c4ccccc4c3C[C@@H]2C1=O [Tadalafil (Cialis), Tadalafil]
HALF-LIFE [2, 3]: 15 to 35 h
PLASMA PROTEIN BINDING (plasma protein; [3]): 94%

CC/C(=C(\c1ccccc1)c1ccc(OCCN(C)C)cc1)c1ccccc1 [Tamoxifen]
HALF-LIFE [2, 7]: ~120 to 170 h
HALF-LIFE [2, 4]: 120 to 170 h
HALF-LIFE [2, 6]: 120 to 170 h
HALF-LIFE [2, 3]: 120 to 170 h
PLASMA PROTEIN BINDING (plasma protein; [7]): 99%
PLASMA PROTEIN BINDING (plasma protein; [4]): 99%
PLASMA PROTEIN BINDING (plasma protein; [6]): 99%
PLASMA PROTEIN BINDING (plasma protein; [3]): 99%

COc1cc([C@@H]2c3cc4c(cc3[C@@H](O[C@@H]3O[C@@H]5CO[C@@H](c6cccs6)O[C@H]5[C@H](O)[C@H]3O)[C@H]3COC(=O)[C@H]23)OCO4)cc(OC)c1O [Teniposide]
HALF-LIFE [2, 5]: 5 h
HALF-LIFE [2, 3]: 5 h
PLASMA PROTEIN BINDING (plasma protein; [5]): >99%
PLASMA PROTEIN BINDING (plasma protein; [3]): >99%

Cc1nnc2n1-c1ccc(Cl)cc1C(c1ccccc1Cl)=NC2 [Triazolam (Halcion), Triazolam]
HALF-LIFE ([2]; in vivo): 2.3 h
PLASMA PROTEIN BINDING (plasma protein; plasma): 89-94% ^

CC[C@]1(O)C[C@@H]2CN(CCc3c([nH]c4ccccc34)[C@@](C(=O)OC)(c3cc4c(cc3OC)N(C)[C@H]3[C@@](O)(C(=O)OC)[C@H](OC(C)=O)[C@]5(CC)C=CCN6CC[C@]43[C@@H]65)C2)C1 [Vinblastine (Velbane), Vinblastine]
HALF-LIFE [2, 3]: 24.8 h
PLASMA PROTEIN BINDING (plasma protein; [3]): 98-99.7% ^

CC(c1cc2ccccc2s1)N(O)C(N)=O (stereo not drawn) [Zileuton]
HALF-LIFE [2, 7]: 2.5 to 3.2 h
PLASMA PROTEIN BINDING (plasma protein; [7]): 93%
